Source: ChEMBL document CHEMBL3244110, “Synthesis and biological evaluation of some 2-amino-4-aryl-3H-1,5-benzodiazepine analogues of clozapine” (J Med Chem, 1978)
The source made the active and inactive calls. No cut-off for these calls is given here.

Assays:
[1] = test system: Mus musculus; assay: Antipsychotic activity in mouse assessed as protection against amphetamine-induced lethality at 5 mg/kg, ip treated 30 mins before amphetamine challenge; format: functional, organism-based; design: dose 5 mg/kg
[2] = test system: Mus musculus; assay: Antipsychotic activity in mouse assessed as protection against amphetamine-induced lethality at 50 mg/kg, ip treated 30 mins before amphetamine challenge; format: functional, organism-based; design: dose 50 mg/kg
[3] = test system: Rattus norvegicus; assay: Antipsychotic activity in 0.2 mA footshock-induced conditioned stimulus rat assessed as decrease in avoidance response at 5 mg/kg, ip after 30 mins; format: functional, organism-based; design: dose 5 mg/kg
[4] = test system: Rattus norvegicus; assay: Antipsychotic activity in 0.2 mA footshock-induced conditioned stimulus rat assessed as decrease in avoidance response at 20 mg/kg, ip after 30 mins; format: functional, organism-based; design: dose 20 mg/kg
[5] = test system: Mus musculus; assay: Antipsychotic activity in mouse assessed as increase in brain dopamine turnover at 25 to 30 mg/kg, ip pretreated with 200 mg/kg, ip alpha-methyl-p-tyrosine tyrosine hydroxylase inhibitor; format: functional, organism-based
[6] = test system: Mus musculus; assay: Toxicity in mouse assessed as ptosis at 50 mg/kg, ip; format: organism-based; design: dose 50 mg/kg, route intraperitoneal; settings: in vivo
[7] = target: Adenylate cyclase; assay: Inhibition of dopamine-sensitive rat brain adenylyl cyclase activity assessed as cAMP level
[8] = target: Adenylate cyclase (Rattus norvegicus) (UniProt D4A3N4+P26770+Q04400+P26769+Q03343+P40146+Q8CFM9+P21932); assay: Inhibition of dopamine-sensitive rat brain adenylyl cyclase activity assessed as cAMP level at 10^-4 M
[9] = test system: Mus musculus; assay: Toxicity in mouse assessed as depression at 20 mg/kg, ip; format: organism-based; design: dose 20 mg/kg, route intraperitoneal; settings: in vivo
[10] = test system: Mus musculus; assay: Toxicity in mouse assessed as depression at 50 mg/kg, ip; format: organism-based; design: dose 50 mg/kg, route intraperitoneal; settings: in vivo
[11] = test system: Mus musculus; assay: Toxicity in mouse assessed as tremors at 50 mg/kg, ip; format: organism-based; design: dose 50 mg/kg, route intraperitoneal; settings: in vivo
[12] = test system: Mus musculus; assay: Toxicity in mouse assessed as depression at 5 mg/kg, ip; format: organism-based; design: dose 5 mg/kg, route intraperitoneal; settings: in vivo

Compound	Activity [1]	Activity [2]	Activity [3]	Activity [4]	Activity [5]	Activity [6]	IC50 [7]	inhibition [8]	Activity [9]	Activity [10]	Activity [11]	Activity [12]
COc1ccc(C2=Nc3ccccc3N=C(N3CCC(c4ccccc4)CC3)C2)cc1	inactive	inactive	inactive	inactive	inactive	–	–	–	–	–	–	–
c1ccc(C2=Nc3ccccc3N=C(N3CCCCC3)C2)cc1	inactive	inactive	inactive	inactive	inactive	–	–	–	–	–	–	–
CN(C)CCCN1c2ccccc2Sc2ccc(Cl)cc21	Active	Active	–	–	Active	–	–	–	–	–	–	–
c1ccc(C2=Nc3ccccc3N=C(N3CCC(C(c4ccccc4)c4ccccc4)CC3)C2)cc1	inactive	Active	inactive	inactive	inactive	Toxic	–	–	–	–	–	–
OCCN1CCN(CCCN2c3ccccc3Sc3ccc(C(F)(F)F)cc32)CC1	Active	Active	–	–	–	–	–	–	–	–	–	–
Butaclamol	Active	Active	–	–	–	–	–	–	–	–	–	–
c1ccc(C2=Nc3ccccc3N=C(N3CCCC3)C2)cc1	inactive	inactive	inactive	inactive	inactive	–	–	–	–	–	–	–
CN1CCN(C2=Nc3cc(Cl)ccc3Nc3ccccc32)CC1 [CLOZAPINE]	Active	Active	Active	Active	Active	–	1.4 ×10⁻⁷ M	–	–	–	–	–
CN1CCN(C2=Nc3ccccc3N=C(c3ccc(F)cc3)C2)CC1	inactive	inactive	inactive	Active	Active	Toxic	–	46%	Toxic	Toxic	–	–
FC(F)(F)c1ccc(C2=CCN(C3=Nc4ccccc4N=C(c4ccccc4)C3)CC2)cc1	inactive	inactive	inactive	inactive	inactive	–	–	inactive	–	–	–	–
Cc1cc2c(cc1C)N=C(N1CCN(C)CC1)CC(c1ccc(F)cc1)=N2	inactive	inactive	inactive	inactive	–	–	–	–	–	–	–	–
c1ccc(CC2CCN(C3=Nc4ccccc4N=C(c4ccccc4)C3)CC2)cc1	Active	Active	inactive	inactive	inactive	Toxic	–	–	–	–	–	–
CN1CCN(C2=Nc3cc(Cl)ccc3N=C(c3ccccc3)C2)CC1	Active	inactive	inactive	inactive	inactive	–	–	–	–	–	–	–
Cc1cc2c(cc1C)N=C(N1CCN(C)CC1)CC(c1ccccc1)=N2	inactive	inactive	inactive	Active	Active	–	–	inactive	Toxic	–	Toxic	–
COc1ccc(C2=Nc3ccccc3N=C(N3CCN(C)CC3)C2)cc1	inactive	inactive	inactive	inactive	–	–	–	–	–	–	–	–
CN(C)C1=Nc2ccccc2N=C(c2ccccc2)C1	inactive	inactive	inactive	inactive	inactive	Toxic	–	–	–	–	–	–
Fc1ccc(C2=Nc3ccccc3N=C(N3CCC(c4ccccc4)CC3)C2)cc1	Active	Active	Active	inactive	inactive	–	–	inactive	–	–	–	Toxic
Clc1ccc(C2=Nc3ccccc3N=C(N3CCC(c4ccccc4)CC3)C2)cc1	inactive	inactive	inactive	inactive	inactive	Toxic	–	–	–	Toxic	–	–
Cc1ccc(C2=Nc3ccccc3N=C(N3CCN(C)CC3)C2)cc1	inactive	inactive	inactive	inactive	–	–	–	–	–	–	–	–

Compound	Activity [1]	Activity [2]	Activity [3]	Activity [4]	Activity [5]	Activity [6]	IC50 [7]	inhibition [8]	Activity [9]	Activity [10]	Activity [11]	Activity [12]
CN1CCN(C2=Nc3ccccc3N=C(c3ccc(Cl)cc3)C2)CC1	inactive	inactive	inactive	inactive	inactive	–	–	–	–	–	–	–
O=C(CCCN1CCC(O)(c2ccc(Cl)cc2)CC1)c1ccc(F)cc1 [HALOPERIDOL]	Active	Active	–	–	Active	–	2.3 µM	–	–	–	–	–
Clc1ccc2c(c1)N=C(N1CCC(c3ccccc3)CC1)CC(c1ccccc1)=N2	inactive	inactive	inactive	inactive	inactive	Toxic	–	inactive	–	–	–	–
Cc1cc2c(cc1C)N=C(N1CCC(c3ccccc3)CC1)CC(c1ccccc1)=N2	inactive	inactive	inactive	inactive	inactive	–	–	inactive	–	–	–	–
CN1CCN(C2=Nc3ccccc3N=C(c3ccccc3)C2)CC1	inactive	inactive	inactive	inactive	Active	Toxic	–	inactive	–	Toxic	–	–
c1ccc(C2=Nc3ccccc3N=C(N3CCOCC3)C2)cc1	inactive	inactive	inactive	inactive	inactive	–	–	–	–	–	–	–
CSc1ccc2c(c1)N(CCC1CCCCN1C)c1ccccc1S2 (stereo unspecified)	–	–	–	–	Active	–	–	–	–	–	–	–
c1ccc(C2=Nc3ccccc3N=C(N3CCC(c4ccccc4)CC3)C2)cc1	Active	Active	inactive	inactive	Active	Toxic	4.5 ×10⁻⁵ M	–	–	–	–	–
C1=C(c2ccccc2)CCN(C2=Nc3ccccc3N=C(c3ccccc3)C2)C1	inactive	inactive	inactive	inactive	inactive	–	–	inactive	–	–	–	–
FC(F)(F)c1ccc(C2CCN(C3=Nc4ccccc4N=C(c4ccccc4)C3)CC2)cc1	Active	inactive	inactive	inactive	inactive	–	–	inactive	–	Toxic	–	–
Cc1ccc(C2=Nc3ccccc3N=C(N3CCC(c4ccccc4)CC3)C2)cc1	inactive	inactive	inactive	inactive	inactive	–	–	–	–	–	–	–
Cc1ccc(C2=CCN(C3=Nc4ccccc4N=C(c4ccccc4)C3)CC2)cc1	inactive	Active	Active	Active	Active	–	–	27%	Toxic	–	–	Toxic
c1ccc(C2=Nc3ccccc3N=C(N3CCC(N4CCCCC4)CC3)C2)cc1	inactive	inactive	inactive	inactive	Active	–	–	inactive	–	–	–	–
FC(F)(F)c1cccc(C2CCN(C3=Nc4ccccc4N=C(c4ccccc4)C3)CC2)c1	inactive	inactive	inactive	inactive	inactive	Toxic	–	inactive	–	–	–	–
Clc1ccc(C2=CCN(C3=Nc4ccccc4N=C(c4ccccc4)C3)CC2)cc1	inactive	inactive	inactive	inactive	Active	Toxic	–	inactive	–	Toxic	–	–
CN(CCO)C1=Nc2ccccc2N=C(c2ccccc2)C1	inactive	inactive	inactive	inactive	inactive	–	–	–	–	–	–	–
COc1ccc(C2CCN(C3=Nc4ccccc4N=C(c4ccccc4)C3)CC2)cc1	inactive	inactive	inactive	inactive	inactive	–	–	inactive	–	–	–	–
c1ccc(C2=Nc3ccccc3N=C(N3CCN(c4ccccc4)CC3)C2)cc1	inactive	inactive	inactive	inactive	inactive	–	–	–	–	–	–	–
